Data: paper PMC6030159 (Scientific Reports, 2018)
Entries after “also recorded” stand apart in the source; their conditions may differ.

Columns and labels:
[1] = tested on: endogenous MYC protein; experiment: Western blot of endogenous MYC in HeLa cells; type: cell-based; conditions: 10 μM, 24 hours
Protocol: These assays were performed essentially as described in[67],[68]. For further information on immunohistochemistry, and on primers and antibodies, see Supplementary Information.

[2] = tested on: T1, MYC:MAX; experiment: Gaussia luciferase complementation (GLuc) MYC:MAX; type: cell-based, human; conditions: 25 μM, 17 hours, HEK293 cells
T1 construct: fused to full length MYC (MYC-GLuc-C) and MAX (MAX-GLuc-N), respectively; expressed in transfected cells; host or cells: HEK293
Protocol: The protein fragment complementation assay using the Gaussia luciferase has been described. 0.2–0.4 μg of each GLuc-construct (see Supplementary Information) together with 0.05–0.2 μg pCMV-Luc (Firefly luciferase) were transiently transfected into HEK293 or COS-7 cells in 6-well plates. 24 hours later cells were treated with compound (10–25 μM) or DMSO. After another 17 hours, the cells were harvested and lyzed in passive lysis buffer (Promega) supplemented with complete protease inhibitor (Roche). After 60 min incubation at room temperature 20 μM D-luciferin was added (substrate of Firefly luciferase) and luminescence was measured in a Lumat LB9501 (Berthold) or OmegaFluostar (BMG Labtech) luminometer. Directly after, Gaussia luciferase substrate Coelenterazine (Promega) was added to a final concentration of 20 μM in a mixture with “Stop n’ Glow” (Promega) and the luciferase activity was measured. The ratio between Gaussia and Firefly luciferase values were calculated and normalized to DMSO-treated control cells.

[3] = tested on: recombinant MYC:MAX:DNA; set-up: method as in PMID 28976731, PMID 25114221; conditions: fluorescence polarization; read-out: IC50, MYC:MAX:DNA interaction; cited from earlier work
[4] = tested on: MAX; set-up: method as in PMID 25114221; conditions: cited from earlier work
[5] = target: T2, MYC bHLHZip (Homo sapiens, UniProt P01106); experiment: SPR direct binding to immobilized MYC; conditions: up to 8 μM
T2 construct: 6xHis (N); made in house; host or cells: E. coli BL21 (DE3), pET28a; purified in denaturing conditions
Protocol: Further, MYCMI-6 binding to MAX, MXD1 (MAD1) (Figs 4C and S5C and D), p53 (Fig. 4D), BSA (Suppl. Fig. S5E) and YFP (data not shown) were negligible. Binding to BCL-XL was only 10% of the theoretical maximum at 2 μM MYCMI-6 (Suppl. Fig. S5F).
The MYC SPR assay was carried out as described above with MYCbHLHZip immobilized to a level of 800–1000 RU. For kinetic binding experiments, a Langmuir 1:1 binding event was applied using the Biacore T200 Evaluation Software 2.0 (GE Healthcare) to determine association (ka) and dissociation (kd) constants of the compound and to calculate affinity (KD) by the formula; KD = kd/ka. Binding responses from equilibrium binding experiments were plotted against compound concentration and KD values were determined at 50% of the theoretical Rmax with the formula Rmax = (MW analyte/MW ligand) × immobilized ligand level on the chip (RU) × stoichiometry (1:1). Same coupling method described above was used to immobilize the control proteins. MAX was immobilized to approximately 2000 RU, MAD to 600 RU, BSA to 1000 RU, p53 to 3000 RU and BCL-XL, to 500 RU.

[6] = tested on: tumor cell growth in vivo; conditions: cited from earlier work
[7] = target: T3, MYCbHLHZip:MAXbHLHZip (Homo sapiens, UniProt P01106); experiment: SPR MYC:MAX heterodimer formation assay; type: binding; conditions: KJ-Pyr-9 up to 10 μM
T3 construct: 6xHis (N); made in house; host or cells: E. coli BL21 (DE3), pET28a
Protocol: The SPR method is a highly sensitive assay to determine the affinity between protein and ligand and to measure the kinetics of the interaction. In the SPR MYC:MAX interaction assay, MAXbHLHZip was covalently attached onto a sensor chip and MYCbHLHZip pre-mixed with compound was injected over the surface and thereafter allowed to dissociate.
The SPR experiments were performed at 25 °C using a Biacore T200 (GE Healthcare) instrument kindly provided by SciLifeLab Solna. An amino coupling procedure was used to immobilize protein on a CM5 sensor chip (GE Healthcare). Sensorgrams were generated by subtraction of the reference (blank immobilized) surface. All details will be described in Castell et al. (manuscript in preparation). In general, for the MYC:MAX interaction assay, 200–500 RU of MAXbHLHZip was immobilized and 100 nM MYCbHLHZip pre-incubated with compound in PBS supplemented with 0.05% Tween-20 and 1% DMSO was injected with a flow rate of 30 µl/min and allowed to dissociate. MAX was regenerated by injection of PBS buffer supplemented with Urea.

[8] = tested on: MAX:MAX:DNA; set-up: method as in PMID 28976731, PMID 25114221; conditions: fluorescence polarization; read-out: IC50, MAX:MAX:DNA interaction; cited from earlier work
[9] = tested on: MYC-family protein levels; set-up: method as in PMID 28976731, PMID 24859015, PMID 23733953; conditions: cited from earlier work
[10] = target: MYC; set-up: method as in PMID 24859015; conditions: read-out: KD for MYC by SPR; cited from earlier work
[11] = tested on: MYCN-amplified neuroblastoma cells (IMR-32, Kelly, SK-N-DZ); experiment: Resazurin growth assay, MYCN-amplified neuroblastoma cell lines; type: cell-based, human; conditions: MYCMI-6 6.25 μM, MYCMI-11 and MYCMI-14 25 μM, 10058-F4 64 μM, 48 hours
Description: HEK293A, MCF7, MDA-MB231, SK-N-F1, SK-N-RA, SK-N-AS, COS-7, HeLa, BJ cells, and Rat1 fibroblasts TGR-1 (wt), HO15.19 (MYC knockout) and HOmyc3 (MYC reconstituted HO15.19) were maintained in DMEM. The neuroblastoma cell lines Kelly, IMR-32 and SK-N-DZ, and the Burkitt’s lymphoma cell lines Mutu, Daudi and ST486 were kept in RPMI. SK-N-BE(2) cells were maintained in a 1:1 mixture of EMEM and F12 media, supplemented with 1% non-essential amino acid solution (NEAA) and 0.5% Glutamine. U2OS-MYC-ER cell lines were cultured in phenol-red free DMEM and treated with 100 nM 4-hydroxytamoxifen (HOT) (Sigma-Aldrich) to activate MYC-ER. IMR-90 was maintained in MEM. All media were supplemented with 10% FBS and 1% penicillin and streptomycin and kept at 37 °C and 5% CO2. All cell lines were mycoplasma free. Cell proliferation assays were performed as described in Supplementary Information. […]
Cell proliferation assays. Cell growth and viability was estimated in triplicates with WST-1
(Roche) or Resazurin sodium salt (Sigma-Aldrich) assays in medium at 37°C and 5% CO 2 for
2 hours after which absorbance or fluorescence, respectively, was measured with an Omega
Fluostar (BMG Labtech) in a 96 well plate format. […]

T3 sequence (P01106 367-447 limits assumed): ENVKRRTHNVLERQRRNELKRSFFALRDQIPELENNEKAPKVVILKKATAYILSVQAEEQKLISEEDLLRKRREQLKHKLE
T2 sequence (P01106 367-447 limits assumed): as above

CCN(CC)CC[n+]1ccc2c(C)c3[nH]c4ccccc4c3c(C)c2c1 [MYCMI-7]
effect on endogenous MYC protein levels (western blot) [1]: reduced MYC protein expression
MYC:MAX GLuc activity [2]: most potent

NC(=O)c1ccc(-c2cc(-c3ccc([N+](=O)[O-])cc3)nc(-c3ccco3)c2)cc1 [KJ-Pyr-9]
IC50 [3]: ~10 µM
binding to MAX, BSI [4]: not MAX
binding to immobilized MYC (SPR), in words [5]: not detect any binding
tumor cell growth in vivo, mouse tumor models [6]: Inhibition of tumor cell growth in vivo
effect on MYC:MAX formation (SPR), in words [7]: no effect; also recorded: not affect the MYC:MAX interaction
IC50 [8]: ~30 µM

CCc1ccc(/C=C2/SC(=S)NC2=O)cc1 [10058-F4]
effect on MYC-family protein levels [9]: down-regulate
Kd [10]: ~40 µM
growth of MYCN-amplified versus MYCN-non-amplified neuroblastoma cell lines [11]: reduced growth of the MYCN-amplified cell lines significantly stronger than the MYCN-non-amplified cell lines
tumor cell growth in vivo, mouse tumor models [6]: Inhibition of tumor cell growth in vivo

O=[N+]([O-])c1ccc(Nc2ccccc2-c2ccccc2)c2nonc12 [10074-G5]
effect on MYC-family protein levels [9]: down-regulate
Kd [10]: ~32 µM
